According to US7833967B2, “Synthetic antimicrobial polypeptides” (priority 2003, dated 2010):

The substances below were run on E. coli TOP10 (assay: Suicide expression system (SES) growth inhibition). Details: Table 3; variants of SEQ ID NO:5, re-tested in the Bioscreen C.
Type: cell-based
For “29 (RRRPRLPRPFPRPVPRPLPRPVPRPI; Synthetic antimicrobial peptide) [compound 29]”, the “Growth inhibition (%)” value was 63%. In the case of “52 (RRRPRPFPRPVPRPIPRPFPRPVPRPF; Synthetic antimicrobial peptide) [compound 52]”, the “Growth inhibition (%)” value is reported as 53%. “47 (RRRPRPFPRPFPRPVPRPIPRPFPRPF; Synthetic antimicrobial peptide) [compound 47]” was tested, and the “Growth inhibition (%)” value was 92%. “63 (RRRPRPFPRPFPRPVPRPFPRPFPRQSNCSRTKTHLRRGSE; Synthetic antimicrobial peptide) [compound 63]” was tested, and the “Growth inhibition (%)” value was 80%.

Same assay, conditions: Table 4; variants of SEQ ID NO:10, re-tested in the Bioscreen C
For “106 (RRRPFRPPFRPPFRPPIRPPIRPPLRP; Synthetic antimicrobial peptide) [compound 106]”, the “Growth inhibition (%)” value was 75%. For “200 (RRRPFRPPFRPPLRPPFRPPVRPPFRP; Synthetic antimicrobial peptide) [compound 200]”, the “Growth inhibition (%)” value was 87%. With “181 (RRRPIRPPIRPPFRPPFRPPFRPPFRP; Synthetic antimicrobial peptide) [compound 181]” the “Growth inhibition (%)” value was 83%. In the case of “68 (RRRPIRPPFRPPFRPPLRPPVRPPFRP; Synthetic antimicrobial peptide) [compound 68]”, the “Growth inhibition (%)” value is reported as 78%. For “94 (RRRPFRPPVRPPIRPPVRPPFRPPFRP; Synthetic antimicrobial peptide) [compound 94]”, the “Growth inhibition (%)” value was 77%. In the case of “127 (RRRPIRPPFRPPLRPPFRPPFRPPLRP; Synthetic antimicrobial peptide) [compound 127]”, the “Growth inhibition (%)” value is reported as 67%. “72 (RRRPIRPPFRPPFRPPFRPPFRPPFRP; Synthetic antimicrobial peptide) [compound 72]” was tested, and the “Growth inhibition (%)” value was 49%. With “139 (RRRPFRPPFRPPIRPPFRPPIRPPVRP; Synthetic antimicrobial peptide) [compound 139]” the “Growth inhibition (%)” value was 67%. In the case of “152 (RRRPFRPPFRPPFRPPFRPPVRPPIRP; Synthetic antimicrobial peptide) [compound 152]”, the “Growth inhibition (%)” value is reported as 75%. For “87 (RRRPFRPPFRPPIRPPFRPPVRPPVRP; Synthetic antimicrobial peptide) [compound 87]”, the “Growth inhibition (%)” value was 80%.

Same assay, conditions: Table 5; mixed-motif library, re-tested in the Bioscreen C
With “219 (RRRPPRLPRPFPFRPPPRVPRPLPFRP; Synthetic antimicrobial peptide) [compound 219]” the “Growth inhibition (%)” value was 93%. “263 (RRRPPRLPRPIPVRPPPRVPRPIPLRP; Synthetic antimicrobial peptide) [compound 263]” was tested, and the “Growth inhibition (%)” value was 94%. For “308 (RRRPPRLPRPVPVRPPPRVPRPVPVRP; Synthetic antimicrobial peptide) [compound 308]”, the “Growth inhibition (%)” value was 96%. For “222 (RRRPPRLPRPFPIRPPPRFPRPVPLRP; Synthetic antimicrobial peptide) [compound 222]”, the “Growth inhibition (%)” value was 93%. In the case of “210 (RRRPPRIPRPIPVRPPPRIPRPIPFRP; Synthetic antimicrobial peptide) [compound 210]”, the “Growth inhibition (%)” value is reported as 94%. For “258 (RRRPPRLPRPIPVRPPPRFPRPIPFRP; Synthetic antimicrobial peptide) [compound 258]”, the “Growth inhibition (%)” value was 92%. In the case of “274 (RRRPPRLPRPLPIRPPPRFPRPVPVRP; Synthetic antimicrobial peptide) [compound 274]”, the “Growth inhibition (%)” value is reported as 93%. “265 (RRRPPRLPRPLPFRPPPRLPRPFPVRP; Synthetic antimicrobial peptide) [compound 265]” was tested, and the “Growth inhibition (%)” value was 94%. In the case of “268 (RRRPPRLPRPLPFRPPPRVPRPVPLRP; Synthetic antimicrobial peptide) [compound 268]”, the “Growth inhibition (%)” value is reported as 93%. For “237 (RRRPPRLPRPFPLRPPPRVPRPVPVRP; Synthetic antimicrobial peptide) [compound 237]”, the “Growth inhibition (%)” value was 96%.
